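The compound was tested at five concentrations on cells cultured in 96-well plates, with a 48-hour exposure period. TGI: total growth inhibition.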
What was measured:
Experiment in all cases: NCI anticancer screen, dose series, 48 h
[1] = system: NCI-H226 lung
[2] = system: NCI-H23 lung
[3] = system: CCRF-CEM leukemia
[4] = system: TK-10 renal
[5] = system: M14 melanoma
[6] = system: LXFL 529 NSCLC
[7] = system: SK-MEL-28 melanoma
[8] = system: OVCAR-4 ovarian
[9] = system: HCT-15 colon
[10] = system: HT29 colon
[11] = system: SW-620 colon
[12] = system: A498 renal
[13] = system: OVCAR-3 ovarian
[14] = system: LOX IMVI melanoma
[15] = system: SK-MEL-5 melanoma
[16] = system: HOP-92 NSCLC
[17] = system: SF-295 CNS
[18] = system: RXF 393 renal
[19] = system: RXF-631 renal
[20] = system: HOP-18 NSCLC
[21] = system: HCT-116 colon
[22] = system: DMS 114 small cell lung
[23] = system: KM20L2 colon
[24] = system: IGROV1 ovarian
[25] = system: HCC-2998 colon
[26] = system: OVCAR-5 ovarian
[27] = system: SNB-75 CNS
[28] = system: EKVX NSCLC
[29] = system: K-562 leukemia
[30] = system: HL-60(TB) leukemia
[31] = system: M19-MEL melanoma
[32] = system: NCI-H460 lung
[33] = system: SF-268 CNS
[34] = system: COLO 205 colon
[35] = system: CAKI-1 renal
[36] = system: MALME-3M melanoma
[37] = system: UACC-62 melanoma
[38] = system: DLD-1 colon
[39] = system: KM12 colon
[40] = system: ACHN renal
[41] = system: A549 NSCLC
[42] = system: MOLT-4 leukemia
[43] = system: DMS 273 small cell lung
[44] = system: SNB-19 CNS
[45] = system: SF-539 CNS
[46] = system: 786-0 renal
[47] = system: UACC-257 melanoma
[48] = system: SK-MEL-2 melanoma
[49] = system: XF 498 CNS
[50] = system: HOP-62 NSCLC
[51] = system: SNB-78 CNS
[52] = system: OVCAR-8 ovarian
[53] = system: SN12C renal
[54] = system: UO-31 renal
[55] = system: U251 CNS
[56] = system: NCI-H522 lung
[57] = system: RPMI-8226 leukemia
[58] = system: SR leukemia
[59] = system: SK-OV-3 ovarian

## N/N=C(/Cc1ccccc1)NNO
[1]
  TGI: > 100 µM
[2]
  TGI: > 100 µM
[3]
  TGI: > 100 µM
[4]
  TGI: > 100 µM
[5]
  TGI: > 100 µM
[6]
  TGI: > 100 µM
[7]
  TGI: > 100 µM
[8]
  TGI: > 100 µM
[9]
  TGI: > 100 µM
[10]
  TGI: > 100 µM
[11]
  TGI: > 100 µM
[12]
  TGI: > 100 µM
[13]
  TGI: > 100 µM
[14]
  TGI: > 100 µM
[15]
  TGI: > 100 µM
[16]
  TGI: > 100 µM
[17]
  TGI: > 100 µM
[18]
  TGI: > 100 µM
[19]
  TGI: > 100 µM
[20]
  TGI: > 100 µM
[21]
  TGI: > 100 µM
[22]
  TGI: > 100 µM
[23]
  TGI: > 100 µM
[24]
  TGI: > 100 µM
[25]
  TGI: > 100 µM
[26]
  TGI: > 100 µM
[27]
  TGI: > 100 µM
[28]
  TGI: > 100 µM
[29]
  TGI: > 100 µM
[30]
  TGI: > 100 µM
[31]
  TGI: > 100 µM
[32]
  TGI: > 100 µM
[33]
  TGI: > 100 µM
[34]
  TGI: > 100 µM
[35]
  TGI: > 100 µM
[36]
  TGI: > 100 µM
[37]
  TGI: > 100 µM
[38]
  TGI: > 100 µM
[39]
  TGI: 34.9 µM
[40]
  TGI: > 100 µM
[41]
  TGI: > 100 µM
[42]
  TGI: > 100 µM
[43]
  TGI: > 100 µM
[44]
  TGI: > 100 µM
[45]
  TGI: > 100 µM
[46]
  TGI: > 100 µM
[47]
  TGI: > 100 µM
[48]
  TGI: > 100 µM

## COC(=O)C1CC(c2ccc(OC)c(OC)c2)OC1=O (mixture of isomers)
[1]
  TGI: > 100 µM
[2]
  TGI: > 100 µM
[3]
  TGI: > 100 µM
[49]
  TGI: > 100 µM
[4]
  TGI: > 100 µM
[50]
  TGI: > 100 µM
[51]
  TGI: > 100 µM
[5]
  TGI: > 100 µM
[6]
  TGI: > 100 µM
[7]
  TGI: > 100 µM
[52]
  TGI: > 100 µM
[8]
  TGI: > 100 µM
[9]
  TGI: > 100 µM
[10]
  TGI: > 100 µM
[53]
  TGI: > 100 µM
[11]
  TGI: > 100 µM
[12]
  TGI: > 100 µM
[13]
  TGI: > 100 µM
[14]
  TGI: > 100 µM
[15]
  TGI: > 100 µM
[16]
  TGI: > 100 µM
[17]
  TGI: > 100 µM
[18]
  TGI: > 100 µM
[19]
  TGI: > 100 µM
[54]
  TGI: > 100 µM
[55]
  TGI: > 100 µM
[21]
  TGI: > 100 µM
[22]
  TGI: > 100 µM
[23]
  TGI: > 100 µM
[24]
  TGI: > 100 µM
[25]
  TGI: > 100 µM
[26]
  TGI: > 100 µM
[56]
  TGI: > 100 µM
[27]
  TGI: > 100 µM
[28]
  TGI: > 100 µM
[29]
  TGI: > 100 µM
[30]
  TGI: > 100 µM
[31]
  TGI: > 100 µM
[57]
  TGI: > 100 µM
[32]
  TGI: > 100 µM
[33]
  TGI: > 100 µM
[34]
  TGI: > 100 µM
[35]
  TGI: > 100 µM
[36]
  TGI: > 100 µM
[37]
  TGI: > 100 µM
[38]
  TGI: > 100 µM
[58]
  TGI: > 100 µM
[39]
  TGI: > 100 µM
[40]
  TGI: > 100 µM
[41]
  TGI: > 100 µM
[42]
  TGI: > 100 µM
[43]
  TGI: > 100 µM
[44]
  TGI: > 100 µM
[45]
  TGI: > 100 µM
[59]
  TGI: > 100 µM
[46]
  TGI: > 100 µM
[47]
  TGI: > 100 µM
